According to patent US9902696B2, “1,4-substituted piperidine derivatives” (Cephalon, Inc., priority 2015, dated 2018):
Where a name gives a salt, the structure may show the parent alone.

biological target: T1, recombinant human baculovirus-expressed GST-tagged FASN (Homo sapiens, UniProt P49327); assay: FASN enzyme activity assay, fluorescence-based detection of CoA with CPM; type: biochemical; details: 5 nM FASN, 150 μM NADPH, 10 μM acetyl-CoA, 25 μM malonyl-CoA, 90 minutes incubation; read-out: IC50 data for Compounds of Formulae I-V/V(a): Activity
T1 construct: GST
T1 sequence (P49327 whole entry): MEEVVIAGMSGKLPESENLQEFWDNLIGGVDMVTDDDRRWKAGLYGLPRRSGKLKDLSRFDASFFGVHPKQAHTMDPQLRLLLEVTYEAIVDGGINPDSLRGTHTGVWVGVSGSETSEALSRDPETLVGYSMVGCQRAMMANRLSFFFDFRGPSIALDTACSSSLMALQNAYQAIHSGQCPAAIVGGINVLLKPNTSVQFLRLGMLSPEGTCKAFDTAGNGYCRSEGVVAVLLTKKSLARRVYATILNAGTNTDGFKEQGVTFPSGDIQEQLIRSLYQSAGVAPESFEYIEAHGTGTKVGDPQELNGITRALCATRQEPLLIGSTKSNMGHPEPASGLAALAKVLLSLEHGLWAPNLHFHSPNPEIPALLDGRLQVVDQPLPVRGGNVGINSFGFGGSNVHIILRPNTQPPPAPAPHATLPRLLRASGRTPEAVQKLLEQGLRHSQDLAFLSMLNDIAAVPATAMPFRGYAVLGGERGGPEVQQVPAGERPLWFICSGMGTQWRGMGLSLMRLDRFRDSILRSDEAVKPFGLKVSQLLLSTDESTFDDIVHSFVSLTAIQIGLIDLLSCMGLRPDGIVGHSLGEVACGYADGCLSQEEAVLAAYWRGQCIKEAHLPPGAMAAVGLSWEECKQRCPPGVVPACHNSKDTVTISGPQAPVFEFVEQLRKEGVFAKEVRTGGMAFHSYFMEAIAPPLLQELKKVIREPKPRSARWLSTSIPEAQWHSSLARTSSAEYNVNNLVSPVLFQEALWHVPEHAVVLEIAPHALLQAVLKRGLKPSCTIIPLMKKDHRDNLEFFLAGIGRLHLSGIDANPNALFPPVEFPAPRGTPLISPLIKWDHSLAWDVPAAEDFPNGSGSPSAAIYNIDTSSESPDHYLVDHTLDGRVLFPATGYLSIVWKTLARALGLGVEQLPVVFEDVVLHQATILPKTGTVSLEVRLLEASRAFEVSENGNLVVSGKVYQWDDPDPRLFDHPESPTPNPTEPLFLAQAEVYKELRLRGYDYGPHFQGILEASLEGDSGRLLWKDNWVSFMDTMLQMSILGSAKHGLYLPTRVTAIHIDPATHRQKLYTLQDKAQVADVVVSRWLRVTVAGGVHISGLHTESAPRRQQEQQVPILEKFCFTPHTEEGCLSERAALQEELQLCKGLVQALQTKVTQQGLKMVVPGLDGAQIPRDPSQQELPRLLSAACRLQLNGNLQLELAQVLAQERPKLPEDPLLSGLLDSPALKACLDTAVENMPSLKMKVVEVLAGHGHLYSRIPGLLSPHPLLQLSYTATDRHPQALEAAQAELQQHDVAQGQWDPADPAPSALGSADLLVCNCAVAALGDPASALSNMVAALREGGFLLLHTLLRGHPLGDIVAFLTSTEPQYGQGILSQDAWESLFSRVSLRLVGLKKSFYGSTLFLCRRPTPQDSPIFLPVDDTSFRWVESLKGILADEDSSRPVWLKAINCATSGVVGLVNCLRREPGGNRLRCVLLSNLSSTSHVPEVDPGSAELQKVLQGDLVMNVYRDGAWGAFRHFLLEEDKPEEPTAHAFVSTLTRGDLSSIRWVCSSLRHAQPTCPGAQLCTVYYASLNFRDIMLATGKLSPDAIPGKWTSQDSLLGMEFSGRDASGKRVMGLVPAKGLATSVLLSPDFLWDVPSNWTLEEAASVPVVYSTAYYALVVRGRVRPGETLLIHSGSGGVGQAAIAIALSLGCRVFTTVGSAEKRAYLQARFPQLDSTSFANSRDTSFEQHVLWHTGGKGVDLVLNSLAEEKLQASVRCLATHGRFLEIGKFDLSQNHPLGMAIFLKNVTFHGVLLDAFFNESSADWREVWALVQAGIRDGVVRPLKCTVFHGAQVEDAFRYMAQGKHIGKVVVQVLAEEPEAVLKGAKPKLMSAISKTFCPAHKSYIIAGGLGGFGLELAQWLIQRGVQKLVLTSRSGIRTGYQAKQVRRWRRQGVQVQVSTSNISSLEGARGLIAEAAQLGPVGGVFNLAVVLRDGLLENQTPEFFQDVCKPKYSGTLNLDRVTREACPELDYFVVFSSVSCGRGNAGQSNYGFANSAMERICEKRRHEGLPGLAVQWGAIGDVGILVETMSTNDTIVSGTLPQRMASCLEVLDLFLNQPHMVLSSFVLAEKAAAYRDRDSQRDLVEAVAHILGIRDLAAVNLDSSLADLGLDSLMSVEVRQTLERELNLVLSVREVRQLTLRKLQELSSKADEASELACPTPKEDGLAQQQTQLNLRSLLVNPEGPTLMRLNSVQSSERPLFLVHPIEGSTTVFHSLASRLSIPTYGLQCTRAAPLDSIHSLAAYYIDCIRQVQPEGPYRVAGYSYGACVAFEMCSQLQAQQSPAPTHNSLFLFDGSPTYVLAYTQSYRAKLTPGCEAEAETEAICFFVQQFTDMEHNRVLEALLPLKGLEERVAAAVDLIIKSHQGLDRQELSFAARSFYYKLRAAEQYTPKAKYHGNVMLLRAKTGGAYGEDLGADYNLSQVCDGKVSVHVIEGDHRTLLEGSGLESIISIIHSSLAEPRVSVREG
How it was run: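 CoA product reacted with thiol-reactive CPM (diluted to 50 μM in 70% ethanol), read at 390/530 nm after 30 min. Preceding reaction: 90 min, 5 nM recombinant GST-FASN, 150 μM NADPH, 10 μM acetyl-CoA, 25 μM malonyl-CoA, pH 7.5 HEPES, 0.5% DMSO. IC50s fitted by nonlinear sigmoidal regression.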

IC50 | Compound
1 to 10 µM | O=C([C@H]1CCCO1)N1CCC(Oc2ccc(-c3ccc4nnc(C(F)(F)F)n4c3)cc2)CC1 [Example 161, (R)-Tetrahydrofuran-2-yl-{4-[4-(3-trifluoromethyl-1,2,4-triazolo[4,3-a]pyridin-6-yl)-phenoxy]-piperidin-1-yl}-methanone]
1 to 10 µM | CS(=O)(=O)N1CCC(Oc2ccc(-c3cnc4ccccc4c3)cc2)CC1 [Example 162, 3-[4-(1-Methanesulfonyl-piperidin-4-yloxy)-phenyl]-quinoline]
0.1 to 0.999 µM | O=C(C1CC(F)(F)CO1)N1CCC(Oc2ccc(-c3cnc4ccccc4c3)cc2)CC1 (stereo not shown) [Example 163, (4,4-Difluorotetrahydrofuran-2-yl)-[4-(4-quinolin-3-yl-phenoxy)-piperidin-1-yl]-methanone, HCl]
0.1 to 0.999 µM | Cc1c(-c2ccc(OC3CCN(C(=O)C4CC(F)(F)CO4)CC3)cc2)ccc2cccnc12 (stereo not shown) [Example 164]
0.1 to 0.999 µM | Cc1nccc2cc(-c3ccc(OC4CCN(C(=O)C5CC(F)(F)CO5)CC4)cc3)ccc12 (stereo not shown) [Example 165]
1 to 10 µM | O=C1COC(C(=O)N2CCC(Oc3ccc(-c4cnc5ccccc5c4)cc3)CC2)C1 (stereo not shown) [Example 166, 5-[4-(4-Quinolin-3-yl-phenoxy)-piperidine-1-carbonyl]dihydrofuran-3-one]
0.001 to 0.099 µM | CCOc1c(-c2ccc(OC3CCN(C(=O)CC)CC3)cc2)ccc2cccnc12 [Example 167, 1-{4-[4-(8-Ethoxyquinolin-7-yl)-phenoxy]-piperidin-1-yl}-propan-1-one, HCl]
0.1 to 0.999 µM | CCOc1c(-c2ccc(OC3CCN(C(=O)C4CC4)CC3)cc2)ccc2cccnc12 [Example 168, Cyclopropyl-{4-[4-(8-ethoxyquinolin-7-yl)-phenoxy]-piperidin-1-yl}-methanone, HCl]
0.1 to 0.999 µM | CCC(=O)N1CCC(Oc2ccc(-c3ccc4cccnc4c3OC(C)C)cc2)CC1 [Example 169, 1-{4-[4-(8-Isopropoxyquinolin-7-yl)-phenoxy]-piperidin-1-yl}-propan-1-one, HCl]
0.1 to 0.999 µM | CC(C)Oc1c(-c2ccc(OC3CCN(C(=O)C4CC4)CC3)cc2)ccc2cccnc12 [Example 170, Cyclopropyl-{4-[4-(8-isopropoxyquinolin-7-yl)-phenoxy]-piperidin-1-yl}-methanone, HCl]
1 to 10 µM | CCC(=O)N1CCC(Oc2ccc(-c3ccc4cccnc4c3OCCN3CCOCC3)cc2)CC1 [Example 171, 1-(4-{4-[8-(2-Morpholin-4-yl-ethoxy)-quinolin-7-yl]-phenoxy}-piperidin-1-yl)-propan-1-one, 2HCl]
1 to 10 µM | O=C(C1CC1)N1CCC(Oc2ccc(-c3ccc4cccnc4c3OCCN3CCOCC3)cc2)CC1 [Example 172, Cyclopropyl-(4-{4-[8-(2-morpholin-4-yl-ethoxy)-quinolin-7-yl]-phenoxyl}-piperidin-1-yl)-methanone, 2HCl]
1 to 10 µM | CCC(=O)N1CCC(Oc2ccc(-c3ccc4cccnc4c3OCCN3CCCC3)cc2)CC1 [Example 173, 1-(4-{4-[8-(2-Pyrrolidin-1-yl-ethoxy)-quinolin-7-yl]-phenoxy}-piperidin-1-yl)-propan-1-one, HCl]

Further lines, the compound ahead of its results:

Compound | IC50
O=C(c1cccc(-c2nc3ccccc3[nH]2)c1)N1CCC(Oc2ccc(-c3cnc4ccccc4c3)cc2)CC1 [Example 130, [3-(1H-Benzimidazol-2-yl)-phenyl]-[4-(4-quinolin-3-yl-phenoxy)-piperidin-1-yl]-methanone, HCl] | 1 to 10 µM
CONC(=O)N1CCC(Oc2ccc(-c3ccc4cccnc4c3OC)cc2)CC1 [Example 131, N-Methoxy-4-[4-(8-methoxy-7-quinolyl)phenoxy]piperidine-1-carboxamide, HCl] | 0.001 to 0.099 µM
CCC(=O)N1CCC(Oc2ccc(-c3cnc4ccccc4c3)cn2)CC1 [Example 132, 1-[4-(5-Quinolin-3-yl-pyridin-2-yloxy)-piperidin-1-yl]-propan-1-one, HCl] | 1 to 10 µM
CC(C)C(=O)N1CCC(Oc2ccc(-c3cnc4ccccc4c3)cn2)CC1 [Example 133, 2-Methyl-1-[4-(5-quinolin-3-yl-pyridin-2-yloxy)-piperidin-1-yl]-propan-1-one, HCl] | 1 to 10 µM
O=C(C1CC1)N1CCC(Oc2ccc(-c3cnc4ccccc4c3)cn2)CC1 [Example 134, Cyclopropyl-[4-(5-quinolin-3-yl-pyridin-2-yloxy)-piperidin-1-yl]-methanone, HCl] | 1 to 10 µM
CCC(=O)N1CCC(Oc2ccc(-c3ccc4cccnc4c3)cn2)CC1 [Example 135, 1-[4-(5-Quinolin-7-yl-pyridin-2-yloxy)-piperidin-1-yl]-propan-1-one, HCl] | 0.1 to 0.999 µM
CC(C)C(=O)N1CCC(Oc2ccc(-c3ccc4cccnc4c3)cn2)CC1 [Example 136, 2-Methyl-1-[4-(5-quinolin-7-yl-pyridin-2-yloxy)-piperidin-1-yl]-propan-1-one, HCl] | 1 to 10 µM
O=C(C1CC1)N1CCC(Oc2ccc(-c3ccc4cccnc4c3)cn2)CC1 [Example 137, Cyclopropyl-[4-(5-quinolin-7-yl-pyridin-2-yloxy)-piperidin-1-yl]-methanone, HCl] | 0.1 to 0.999 µM
CC(C)C(=O)N1CCC(Oc2ncc(-c3cnc4ccccc4c3)cn2)CC1 [Example 138, 2-Methyl-1-[4-(5-quinolin-3-yl-pyrimidin-2-yloxy)-piperidin-1-yl]-propan-1-one, 2HCl] | 1 to 10 µM
O=C(C1CC1)N1CCC(Oc2ncc(-c3cnc4ccccc4c3)cn2)CC1 [Example 139, Cyclopropyl-[4-(5-quinolin-3-yl-pyrimidin-2-yloxy)-piperidin-1-yl]-methanone, 2HCl] | 1 to 10 µM
CCC(=O)N1CCC(Oc2ccc(-c3cnc4ccccc4c3)nc2)CC1 [Example 140, 1-[4-(6-Quinolin-3-yl-pyridin-3-yloxy)-piperidin-1-yl]-propan-1-one, 2HCl] | 1 to 10 µM
CC(C)C(=O)N1CCC(Oc2ccc(-c3cnc4ccccc4c3)nc2)CC1 [Example 141, 2-Methyl-1-[4-(6-quinolin-3-yl-pyridin-3-yloxy)-piperidin-1-yl]-propan-1-one, 2HCl] | 1 to 10 µM
O=C(C1CC1)N1CCC(Oc2ccc(-c3cnc4ccccc4c3)nc2)CC1 [Example 142, Cyclopropyl-[4-(6-quinolin-3-yl-pyridin-3-yloxy)-piperidin-1-yl]-methanone, 2HCl] | 1 to 10 µM
CCC(=O)N1CCC(Oc2ccc(-c3ccc4cccnc4c3)nc2)CC1 [Example 144, 1-[4-(6-Quinolin-7-yl-pyridin-3-yloxy)-piperidin-1-yl]-propan-1-one, 2HCl] | 1 to 10 µM
CC(C)C(=O)N1CCC(Oc2ccc(-c3ccc4cccnc4c3)nc2)CC1 [Example 145, 2-Methyl-1-[4-(6-quinolin-7-yl-pyridin-3-yloxy)-piperidin-1-yl]-propan-1-one, 2HCl] | 1 to 10 µM
O=C(C1CC1)N1CCC(Oc2ccc(-c3ccc4cccnc4c3)nc2)CC1 [Example 146, Cyclopropyl-[4-(6-quinolin-7-yl-pyridin-3-yloxy)-piperidin-1-yl]-methanone, 2HCl] | 1 to 10 µM
CCC(=O)N1CCC(Oc2ccc(-c3ccc4cnccc4c3)nc2)CC1 [Example 147, 1-[4-(6-Isoquinolin-6-yl-pyridin-3-yloxy)-piperidin-1-yl]-propan-1-one, 2HCl] | 1 to 10 µM
CC(C)C(=O)N1CCC(Oc2ccc(-c3ccc4cnccc4c3)nc2)CC1 [Example 148, 1-[4-(6-Isoquinolin-6-yl-pyridin-3-yloxy)-piperidin-1-yl]-2-methyl-propan-1-one, 2HCl] | 1 to 10 µM
O=C(C1CC1)N1CCC(Oc2ccc(-c3ccc4cnccc4c3)nc2)CC1 [Example 149, Cyclopropyl-[4-(6-isoquinolin-6-yl-pyridin-3-yloxy)-piperidin-1-yl]-methanone, 2HCl] | 1 to 10 µM
CCC(=O)N1CCC(C(=O)N(C)c2ccc(-c3ccc4cccnc4c3)cc2)CC1 [Example 150, 1-Propionyl-piperidine-4-carboxylic acid methyl-(4-quinolin-7-yl-phenyl)-amide] | 0.1 to 0.999 µM
CCC(=O)N1CCC(C(=O)N(C)c2ccc(-c3ccc4cnccc4c3)cc2)CC1 [Example 151, 1-Propionyl-piperidine-4-carboxylic acid (4-isoquinolin-6-yl-phenyl)-methylamide] | 0.1 to 0.999 µM
O=C(C1OCCO1)N1CCC(Oc2ccc(-c3cnc4ccccc4c3)cc2)CC1 [Example 152, HCl] | 0.001 to 0.099 µM
O=CN1CCC(Oc2ccc(-c3cnc4ccccc4c3)cc2)CC1 [Example 153, 4-(4-Quinolin-3-yl-phenoxy)-piperidine-1-carbaldehyde, HCl] | 1 to 10 µM
C[C@@H]1C[C@H](C(=O)N2CCC(Oc3ccc(-c4cnc5ccccc5c4)cc3)CC2)O[C@@H]1C [Example 156, ((2R,4R,5R)/(2S,4S,5 S)-4,5-Dimethyl-tetrahydrofuran-2-yl)-[4-(4-quinolin-3-yl-phenoxy)-piperidin-1-yl]-methanone, HCL] | 0.1 to 0.999 µM
CCC(=O)N1CCC(N(C)C(=O)c2ccc(-c3ccc4cnccc4c3)cc2F)CC1 [Example 158, 2-Fluoro-4-isoquinolin-6-yl-N-methyl-N-(1-propionyl-piperidin-4-yl)-benzamide] | 1 to 10 µM
CCC(=O)N1CCC(Oc2ccc(-c3ccc4nnc(C(F)(F)F)n4c3)cc2)CC1 [Example 159, 1-{4-[4-(3-Trifluoromethyl-1,2,4-triazolo[4,3-a]pyridin-6-yl)-phenoxy]-piperidin-1-yl}-propan-1-one, HCl] | 1 to 10 µM
O=C(C1CC1)N1CCC(Oc2ccc(-c3ccc4nnc(C(F)(F)F)n4c3)cc2)CC1 [Example 160, Cyclopropyl-{4-[4-(3-trifluoromethyl-1,2,4-triazolo[4,3-a]pyridin-6-yl)-phenoxy]-piperidin-1-yl}-methanone, HCl] | 1 to 10 µM
